According to patent publication US10869904B2, “Pharmaceutical composition for preventing or treating respiratory disease comprising extract of Justicia procumbens L” (DONG WHA PHARM. CO., LTD., priority 2016, dated 2020):

Test system: ICR mice
Assay: Test for evaluation of expectorant activity (phenol red in trachea)
Type: in vivo
Conditions: 200 mg/kg, oral, male ICR mice
Procedure: In order to evaluate the expectorant activities of the water and ethanol extracts of Justicia procumbens L., prepared in Preparation Examples 1-1 to 1-2, a test for evaluation of expectorant activity was performed using male ICR mice (weighed 30 to 33 g; Orientbio). Specifically, the extracts and the comparative drug ambroxol (200 mg/kg, Boehringer Ingelheim) were administered orally to the respective groups of mice that fasted the previous day. […] The isolated trachea was freeze-stored in 1 ml of physiological saline for 24 hours. Next, the trachea was sonicated, and 1N NaOH was added to the supernatant (0.1 ml of 1N NaOH per ml of the supernatant). Then, the absorbance at 546 nm was measured and the expectorant activity was measured with the concentration of phenol red.

Nc1c(Br)cc(Br)cc1CN[C@H]1CC[C@H](O)CC1 [Ambroxol, ambroxol]
Expectoration (%, n = 4, Mean ± SE): 11.4 ± 12.89%
